In patent publication US9149038B2, “4-amino-6-(heterocyclic)picolinates and 6-amino-2-(heterocyclic)pyrimidine-4-carboxylates and their use as herbicides” (Dow AgroSciences LLC, priority 2013, dated 2015):
Read-outs that look alike come from different tables or passages of the source.

System: Wheat and Barley and weed species
Assay: Post-Emergent Test III: postemergent herbicidal activity in wheat and barley, visual rating after 21 d and probit GR20/GR50/GR80/GR90 (Tables 9-13)
Format: in vivo
Details: for pest or weed control at 17.5 g/ha / pest or weed control at 35 g/ha / pest or weed control at 70 g/ha: post-emergence, 504 h
In short: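 Greenhouse plants (~18/17 °C, 14 h photoperiod) at second–third true leaf stage sprayed at 187 L/ha with a high rate and ½× to 1/16× serial dilutions. Visual injury 0–100% versus solvent-blank controls scored at 21 d; GR20, GR50, GR80 and GR90 derived by probit analysis across rates.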

SMILES: Nc1c(F)c(-c2ccc(Cl)c3c2OC(F)(F)O3)nc(C(=O)O)c1Cl [Compound 82]
- Visual Growth Reduction (%) 21 Days After Application CIRAR (CIRAR Canada thistle (Cirsium arvense), 17.5 g ai/ha): B (85-94)
- Visual Growth Reduction (%) 21 Days After Application CIRAR (CIRAR Canada thistle (Cirsium arvense), 35 g ai/ha): B (85-94)
- Visual Growth Reduction (%) 21 Days After Application CIRAR (CIRAR Canada thistle (Cirsium arvense), 70 g ai/ha): B (85-94)
- GR50 CIRAR (CIRAR Canada thistle (Cirsium arvense), growth reduction of 50%, probit analysis): 1 g ai/ha
- GR80 CIRAR (CIRAR Canada thistle (Cirsium arvense), growth reduction of 80%, probit analysis): 10 g ai/ha
- GR90 CIRAR (CIRAR Canada thistle (Cirsium arvense), growth reduction of 90%, probit analysis): 34 g ai/ha
- Visual Growth Reduction (%) 21 Days After Application GALAP (GALAP cleavers (Galium aparine), 17.5 g ai/ha): D (60-74)
- Visual Growth Reduction (%) 21 Days After Application GALAP (GALAP cleavers (Galium aparine), 35 g ai/ha): B (85-94)
- Visual Growth Reduction (%) 21 Days After Application GALAP (GALAP cleavers (Galium aparine), 70 g ai/ha): B (85-94)
- GR50 GALAP (GALAP cleavers (Galium aparine), growth reduction of 50%, probit analysis): 10 g ai/ha
- GR80 GALAP (GALAP cleavers (Galium aparine), growth reduction of 80%, probit analysis): 33 g ai/ha
- GR90 GALAP (GALAP cleavers (Galium aparine), growth reduction of 90%, probit analysis): 64 g ai/ha
- GR20 HORVS (HORVS barley, spring (crop), growth reduction of 20%, probit analysis): 7 g ai/ha
- pest or weed control at 17.5 g/ha (Hordeum vulgare, HORVS barley, spring (crop), 17.5 g ai/ha, read-out: Visual Growth Reduction (%) 21 Days After Application HORVS): 30 to 44%
- pest or weed control at 35 g/ha (Hordeum vulgare, HORVS barley, spring (crop), 35 g ai/ha, read-out: Visual Growth Reduction (%) 21 Days After Application HORVS): 60 to 74%
- pest or weed control at 70 g/ha (Hordeum vulgare, HORVS barley, spring (crop), 70 g ai/ha, read-out: Visual Growth Reduction (%) 21 Days After Application HORVS): 75 to 84%
- Visual Growth Reduction (%) 21 Days After Application KCHSC (KCHSC kochia (Kochia scoparia), 17.5 g ai/ha): D (60-74)
- Visual Growth Reduction (%) 21 Days After Application KCHSC (KCHSC kochia (Kochia scoparia), 35 g ai/ha): C (75-84)
- Visual Growth Reduction (%) 21 Days After Application KCHSC (KCHSC kochia (Kochia scoparia), 70 g ai/ha): C (75-84)
- GR50 KCHSC (KCHSC kochia (Kochia scoparia), growth reduction of 50%, probit analysis): 2 g ai/ha
- GR80 KCHSC (KCHSC kochia (Kochia scoparia), growth reduction of 80%, probit analysis): 83 g ai/ha
- GR90 KCHSC (KCHSC kochia (Kochia scoparia), growth reduction of 90%, probit analysis): >140 g ai/ha
- Visual Growth Reduction (%) 21 Days After Application LAMPU (LAMPU purple deadnettle (Lamium purpureum), 17.5 g ai/ha): G (0-29)
- Visual Growth Reduction (%) 21 Days After Application LAMPU (LAMPU purple deadnettle (Lamium purpureum), 35 g ai/ha): G (0-29)
- Visual Growth Reduction (%) 21 Days After Application LAMPU (LAMPU purple deadnettle (Lamium purpureum), 70 g ai/ha): F (30-44)
- GR50 LAMPU (LAMPU purple deadnettle (Lamium purpureum), growth reduction of 50%, probit analysis): 89 g ai/ha
- GR80 LAMPU (LAMPU purple deadnettle (Lamium purpureum), growth reduction of 80%, probit analysis): 131 g ai/ha
- GR90 LAMPU (LAMPU purple deadnettle (Lamium purpureum), growth reduction of 90%, probit analysis): >140 g ai/ha
- Visual Growth Reduction (%) 21 Days After Application MATCH (MATCH wild chamomile (Matricaria recutita L.), 17.5 g ai/ha): C (75-84)
- Visual Growth Reduction (%) 21 Days After Application MATCH (MATCH wild chamomile (Matricaria recutita L.), 35 g ai/ha): C (75-84)
- Visual Growth Reduction (%) 21 Days After Application MATCH (MATCH wild chamomile (Matricaria recutita L.), 70 g ai/ha): B (85-94)
- GR50 MATCH (MATCH wild chamomile (Matricaria recutita L.), growth reduction of 50%, probit analysis): 18 g ai/ha
- GR80 MATCH (MATCH wild chamomile (Matricaria recutita L.), growth reduction of 80%, probit analysis): 35 g ai/ha
- GR90 MATCH (MATCH wild chamomile (Matricaria recutita L.), growth reduction of 90%, probit analysis): 49 g ai/ha
- Visual Growth Reduction (%) 21 Days After Application PAPRH (PAPRH common poppy (Papaver rhoeas), 17.5 g ai/ha): G (0-29)
- Visual Growth Reduction (%) 21 Days After Application PAPRH (PAPRH common poppy (Papaver rhoeas), 35 g ai/ha): G (0-29)
- Visual Growth Reduction (%) 21 Days After Application PAPRH (PAPRH common poppy (Papaver rhoeas), 70 g ai/ha): F (30-44)
- GR50 PAPRH (PAPRH common poppy (Papaver rhoeas), growth reduction of 50%, probit analysis): 113 g ai/ha
- GR80 PAPRH (PAPRH common poppy (Papaver rhoeas), growth reduction of 80%, probit analysis): >140 g ai/ha
- GR90 PAPRH (PAPRH common poppy (Papaver rhoeas), growth reduction of 90%, probit analysis): >140 g ai/ha
- Visual Growth Reduction (%) 21 Days After Application SASKR (SASKR Russian thistle (Salsola iberica), 17.5 g ai/ha): B (85-94)
- Visual Growth Reduction (%) 21 Days After Application SASKR (SASKR Russian thistle (Salsola iberica), 35 g ai/ha): B (85-94)
- Visual Growth Reduction (%) 21 Days After Application SASKR (SASKR Russian thistle (Salsola iberica), 70 g ai/ha): B (85-94)
- GR50 SASKR (SASKR Russian thistle (Salsola iberica), growth reduction of 50%, probit analysis): 1 g ai/ha
- GR80 SASKR (SASKR Russian thistle (Salsola iberica), growth reduction of 80%, probit analysis): 10 g ai/ha
- GR90 SASKR (SASKR Russian thistle (Salsola iberica), growth reduction of 90%, probit analysis): 32 g ai/ha
- Visual Growth Reduction (%) 21 Days After Application SINAR (SINAR wild mustard (Sinapis arvensis), 17.5 g ai/ha): A (95-100)
- Visual Growth Reduction (%) 21 Days After Application SINAR (SINAR wild mustard (Sinapis arvensis), 35 g ai/ha): A (95-100)
- Visual Growth Reduction (%) 21 Days After Application SINAR (SINAR wild mustard (Sinapis arvensis), 70 g ai/ha): A (95-100)
- GR50 SINAR (SINAR wild mustard (Sinapis arvensis), growth reduction of 50%, probit analysis): 0.02 g ai/ha
- GR80 SINAR (SINAR wild mustard (Sinapis arvensis), growth reduction of 80%, probit analysis): 0.5 g ai/ha
- GR90 SINAR (SINAR wild mustard (Sinapis arvensis), growth reduction of 90%, probit analysis): 2 g ai/ha
- GR20 TRZAS (TRZAS wheat, spring (crop), growth reduction of 20%, probit analysis): 4 g ai/ha
- pest or weed control at 17.5 g/ha (Triticum aestivum, TRZAS wheat, spring (crop), 17.5 g ai/ha, read-out: Visual Growth Reduction (%) 21 Days After Application TRZAS): 60 to 74%
- pest or weed control at 35 g/ha (Triticum aestivum, TRZAS wheat, spring (crop), 35 g ai/ha, read-out: Visual Growth Reduction (%) 21 Days After Application TRZAS): 60 to 74%
- pest or weed control at 70 g/ha (Triticum aestivum, TRZAS wheat, spring (crop), 70 g ai/ha, read-out: Visual Growth Reduction (%) 21 Days After Application TRZAS): 75 to 84%
- Visual Growth Reduction (%) 21 Days After Application VERPE (VERPE bird's-eye speedwell (veronica persica), 17.5 g ai/ha): G (0-29)
- Visual Growth Reduction (%) 21 Days After Application VERPE (VERPE bird's-eye speedwell (veronica persica), 35 g ai/ha): G (0-29)
- Visual Growth Reduction (%) 21 Days After Application VERPE (VERPE bird's-eye speedwell (veronica persica), 70 g ai/ha): G (0-29)
- GR50 VERPE (VERPE bird's-eye speedwell (veronica persica), growth reduction of 50%, probit analysis): >140 g ai/ha
- GR80 VERPE (VERPE bird's-eye speedwell (veronica persica), growth reduction of 80%, probit analysis): >140 g ai/ha
- GR90 VERPE (VERPE bird's-eye speedwell (veronica persica), growth reduction of 90%, probit analysis): >140 g ai/ha
- Visual Growth Reduction (%) 21 Days After Application VIOTR (VIOTR wild pansy (Viola tricolor), 17.5 g ai/ha): E (45-59)
- Visual Growth Reduction (%) 21 Days After Application VIOTR (VIOTR wild pansy (Viola tricolor), 35 g ai/ha): D (60-74)
- Visual Growth Reduction (%) 21 Days After Application VIOTR (VIOTR wild pansy (Viola tricolor), 70 g ai/ha): D (60-74)
- GR50 VIOTR (VIOTR wild pansy (Viola tricolor), growth reduction of 50%, probit analysis): 31 g ai/ha
- GR80 VIOTR (VIOTR wild pansy (Viola tricolor), growth reduction of 80%, probit analysis): 62 g ai/ha
- GR90 VIOTR (VIOTR wild pansy (Viola tricolor), growth reduction of 90%, probit analysis): 90 g ai/ha
